This is an account of results in paper PMC5352738, “Characterization of three pyranose dehydrogenase isoforms from the litter-decomposing basidiomycete Leucoagaricus meleagris (syn. Agaricus meleagris)” (Applied Microbiology and Biotechnology, 2016).

Type in all cases: biochemical
The target of one experiment is T1, AmPDH3 (Macropsalliota meleagris, UniProt Q0R4L2).
T1 construct: gene pdh3; full-length pdh3 (600 aa precursor) in pPICZB-His6, His6-tag kept, secreted from Pichia pastoris X33; strongly N-glycosylated, ~65 kDa deglycosylated; standard yellow form with covalent FAD
T1 sequence (Q0R4L2 26-600): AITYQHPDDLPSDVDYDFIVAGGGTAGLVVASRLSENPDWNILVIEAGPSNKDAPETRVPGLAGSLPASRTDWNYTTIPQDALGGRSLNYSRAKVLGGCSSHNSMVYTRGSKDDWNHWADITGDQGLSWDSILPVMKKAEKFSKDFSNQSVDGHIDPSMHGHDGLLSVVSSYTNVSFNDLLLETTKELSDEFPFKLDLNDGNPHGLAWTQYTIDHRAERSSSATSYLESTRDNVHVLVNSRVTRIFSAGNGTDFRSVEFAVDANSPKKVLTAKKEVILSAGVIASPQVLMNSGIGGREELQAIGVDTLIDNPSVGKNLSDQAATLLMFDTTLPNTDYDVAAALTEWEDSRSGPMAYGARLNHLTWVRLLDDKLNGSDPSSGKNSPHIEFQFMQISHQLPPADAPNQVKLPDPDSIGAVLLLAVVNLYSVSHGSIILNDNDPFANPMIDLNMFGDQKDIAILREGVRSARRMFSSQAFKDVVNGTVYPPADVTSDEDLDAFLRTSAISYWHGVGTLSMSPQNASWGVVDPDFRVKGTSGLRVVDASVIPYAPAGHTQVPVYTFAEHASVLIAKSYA
The experiment is described as follows: steady-state kinetics, absorbance at […] nm. To be noted: electron acceptor; 25 mM D-glucose, 100 mM Na borate pH 8.5, 30 °C; read-out: AmPDH3 / K m.

For a further experiment, the target named is T2, AmPDH2 (Macropsalliota meleagris, UniProt Q3L243).
T2 construct: gene pdh2; full-length pdh2 (600 aa precursor) in pPICZB-His6, His6-tag kept, secreted from Pichia pastoris X33; N-glycosylated, ~65 kDa deglycosylated; covalent FAD
T2 sequence (Q3L243 26-600): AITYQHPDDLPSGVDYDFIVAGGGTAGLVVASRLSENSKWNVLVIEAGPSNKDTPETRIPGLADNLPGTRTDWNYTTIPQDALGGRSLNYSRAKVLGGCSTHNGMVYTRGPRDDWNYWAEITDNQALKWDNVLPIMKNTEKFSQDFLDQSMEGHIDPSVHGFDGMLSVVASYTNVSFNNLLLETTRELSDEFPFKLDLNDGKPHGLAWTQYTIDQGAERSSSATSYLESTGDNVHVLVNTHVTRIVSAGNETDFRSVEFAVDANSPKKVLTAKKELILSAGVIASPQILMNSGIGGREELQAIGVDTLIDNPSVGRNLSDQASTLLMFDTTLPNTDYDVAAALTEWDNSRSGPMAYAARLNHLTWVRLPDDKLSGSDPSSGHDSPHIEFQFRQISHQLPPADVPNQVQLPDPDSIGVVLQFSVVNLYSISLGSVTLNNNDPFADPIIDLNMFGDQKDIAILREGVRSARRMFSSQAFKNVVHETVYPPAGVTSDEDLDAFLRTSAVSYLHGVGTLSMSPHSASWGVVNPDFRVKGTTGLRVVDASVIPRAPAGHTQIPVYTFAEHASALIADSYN
In words: steady-state kinetics, absorbance at […] nm. The conditions noted are these: electron acceptor; 25 mM D-glucose, 100 mM Na borate pH 8.5, 30 °C; read-out: AmPDH2 / K m.

Experiment [1] addresses T3, AmPDH1 (Macropsalliota meleagris, UniProt Q3L245).
T3 construct: gene pdh1; full-length pdh1 (602 aa precursor) in pPICZB-His6, His6-tag kept, secreted from Pichia pastoris X33; N-glycosylated monomer, ~65 kDa deglycosylated; covalent FAD
The experiment is described as follows: steady-state kinetics, absorbance at […] nm. The conditions noted are these: electron acceptor; 25 mM D-glucose, 100 mM Na borate pH 8.5, 30 °C; read-out: AmPDH1 / K m.

Experiment [2] concerns the target T3, AmPDH1. In words: steady-state kinetics, absorbance at […] nm. The conditions noted are these: read-out: AmPDH1 / K m.
Experiment [3] has as its target T3, AmPDH1. The experiment is described as follows: steady-state ferrocenium assay, […] nm. To be noted: electron donor; 0.2 mM ferrocenium, 50 mM Na phosphate pH 7.5, 30 °C; read-out: AmPDH1 / K m.

T3 sequence (Q3L245 26-602): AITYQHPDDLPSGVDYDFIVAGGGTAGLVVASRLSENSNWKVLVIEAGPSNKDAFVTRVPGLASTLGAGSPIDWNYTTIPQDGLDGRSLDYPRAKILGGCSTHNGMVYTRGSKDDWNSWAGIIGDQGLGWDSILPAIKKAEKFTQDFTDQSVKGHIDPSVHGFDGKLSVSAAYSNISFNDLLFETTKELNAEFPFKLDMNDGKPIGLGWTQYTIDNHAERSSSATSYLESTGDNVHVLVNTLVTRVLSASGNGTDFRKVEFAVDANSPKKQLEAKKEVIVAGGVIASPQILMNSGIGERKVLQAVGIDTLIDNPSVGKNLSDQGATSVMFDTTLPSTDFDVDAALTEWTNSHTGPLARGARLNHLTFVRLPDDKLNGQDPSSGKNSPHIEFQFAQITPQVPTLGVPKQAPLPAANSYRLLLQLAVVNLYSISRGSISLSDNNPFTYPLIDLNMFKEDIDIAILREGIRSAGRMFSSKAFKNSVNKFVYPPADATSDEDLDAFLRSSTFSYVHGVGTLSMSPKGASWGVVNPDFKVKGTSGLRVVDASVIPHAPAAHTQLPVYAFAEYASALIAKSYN

With `C1=CCC=C1.C1=CCC=C1.[Fe+3]` [ferrocenium cation], the Km was found to be 10.3 ± 0.9 µM on AmPDH3, 20.1 ± 2.3 µM on AmPDH2 and 161 ± 38 µM at AmPDH1 [1].

Turning to `O=C1C=CC(=O)C=C1` [1,4-benzoquinone], the Km on AmPDH1 [2] was determined as 1380 ± 280 µM.

`OC[C@H]1OC(O)[C@H](O)[C@@H](O)[C@@H]1O` (stereo partly drawn) [D-glucose]: on AmPDH1 [3], the Km amounted to 820 ± 10 µM.
